The results in this text go back to patent US20230285389A1, “USE OF CSF-1R KINASE INHIBITOR” (Shanghai Runshi Medical Technology Co., Ltd, priority 2020, published 2023).

For assay [1], the system named is MC38 subcutaneous xenograft. In words: Immune cell subpopulation scan in tumor tissue of MC38 xenograft model. Type of assay: in vivo, mouse. On the procedure: MC38 cells in good condition were re-suspended to 25 million cells/mL. 200 µL of cell suspension was inoculated subcutaneously in the right armpit of each mouse. When the tumor cells formed subcutaneous xenograft in the mice and grew to an average volume of approximately 100 mm^3, the mice were randomly assigned to the dosing group and the control group. The test compounds were prepared at the desired concentrations and corresponding equal amount of solvent was used as a solvent control. The drugs were administrated orally, and administrated once per day for 24 consecutive days.
During the dosing period, the xenograft volumes of the mice and the weights of the mice were measured every 2-4 days. When the MC38 subcutaneous xenograft from the solvent control group of grew to 700-800 mm^3, the experiment was stopped. Fresh tumors removed from the mice were sheared with scissors into fragments no more than 2 mm^3. The digestive enzyme was prepared according to the instructions of Tumor Dissociation Kit. The tumor tissue mass was re-suspended with 2.5 mL of prepared enzyme solution, and was placed into a gentleMACS™ Dissociator instrument for dissociating the tumor with a selected program. After completion of dissociation, the suspension was filtered with a 70 µM filter screen to obtain a cell suspension. The cell suspension was lysed with an erythrocyte lysing agent for 10 min, centrifuged at 300 g for 5 min, and re-suspended with PBS. Desired amount of cells were taken out after cell counting. The cells were first washed twice with PBS. After washing, each sample was re-suspended with 100 µL of PBS and 0.5 µL of the fluorescent antibody prepared according to the manufacturer’s instructions to distinguish dead and live cells was added. The samples were stained in the dark at 4° C. for 30 min. After 30 min, the samples were washed twice with 1 mL of the running buffer and the tubes were centrifuged at 300 g for 5 min at 4° C. The blocking antibody diluent was prepared by adding 2 µL of blocking antibody TruStain fcX™ (anti-mouse CD16/32) per 100 µL running buffer and was added on the basis of the 100 µL system of each sample. After blocking for 10 min, according to the manufacturer’s instructions, the fluorescent antibody corresponding to the surface protein was added to the samples, and the reactant was allowed for incubation at 4° C. for 30 min. At this step, a single staining control and an FMO control were set. Then, the samples were washed twice with 1 mL of the running buffer, and centrifuged at 300 g for 5 min at 4° C. each time.
If only surface proteins were to be examined, after centrifugation, the samples were re-suspended with 300 µL of PBS and immediately input into machines, or the samples were fixed with 4% paraformaldehyde for 15 min, and centrifuged at 500 g for 7 min. The supernatants were discarded and the pellets were re-suspended with PBS and stored for further machine analysis.
If intracellular factors were to be examined as well, when the supernatants were discarded after centrifugation, 100 µL of re-suspended samples were retained. IC fixation solution in Intracellular Fixation & Permeabilization Buffer Set was added to each sample based on the 100 µL volume. The samples were placed at 4° C. for fixation for 30 min. After the fixation was completed, the samples were centrifuged at 500 g for 7 min. 10×Permeabilization Buffer was prepared into 1×membrane destructive solution with triple distilled water. After centrifugation, 2 mL of 1×membrane destructive solution was added to each sample to re-suspend the samples, and the samples were centrifuged at 500 g for 7 min. The process was repeated twice. 1×membrane destructive solution was used to prepare the intracellular fluorescent antibody as recommended in the instructions for antibody. The cells were re-suspended in a system of 100 µL per well, and placed at 4° C. to stain for 30 min. At this step, a single staining control and an FMO control were set. […]

Assay [2] concerns CD8+ T cells co-cultured with CSF-1-induced BMDMs. The conditions noted are these: BMDMs pre-incubated with compound; co-culture 72 h.
[3] abbreviates: each dose group, oral once per day.

`CNC(=O)c1cccc2cc(Oc3ccnc(NC(=O)c4ccc(N5C[C@@H](C)N[C@@H](C)C5)cc4)c3)ccc12` [Compound I]: in assay [1] (10 mg/kg group), the “infiltration of Granzyme B+CD8+ T cells vs solvent control” value was “significantly increased”. In addition, in assay [1] (setting [3]), the “infiltration of CD206+ M2-biased macrophages in TAMs” value is given as “further down-regulated” and the “infiltration of TAMs in tumor tissue vs solvent control” value is “significantly reduced”. In assay [1] (oral once per day), the “infiltration of CD8+ T cells vs solvent control” value is “no significant change”, the “infiltration of IFNγ+CD8+ T cells vs solvent control” value was “no significant change” and the “infiltration of Treg cells” value is on record as “significantly reduced”. Also, in assay [2], the “CD8+ T cell proliferation compared to solvent control” value was “substantially increased”.
